We go through 13 molecules from PubChem BioAssay (NCI).

Molecules are shown by their SMILES. Values joined by “and” are separate entries in the source; they are usually repeats but may differ in a detail not shown here. Equal values may be shown once.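 Assay format: 96-well plates, 48-hour exposure. GI50 = concentration required for 50% inhibition of growth. TGI is the concentration that stops growth completely.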

Among the test systems are 786-0 renal; COLO 205 colon; HCT-116 colon; HOP-62 NSCLC; MDA-MB-231 breast; MDA-MB-435; MOLT-4 leukemia; NCI-H460 lung; SNB-75 CNS; T-47D breast.
What all share (assay): inhibition of tumour cell growth, NCI panel, 48 h

`O=C(O)[C@H]1[C@@H](C2CCCCC2)O[C@@H](C2CCCCC2)O[C@H]1C(F)(F)F`: the TGI in the assay on 786-0 renal is 33.5 µM; in the assay with COLO 205 colon, 77.9 µM; in the assay on HCT-116 colon, more than 100 µM; in the assay on HOP-62 NSCLC it was 50.6 µM; in the assay on MDA-MB-231 breast, 36.2 µM; with MDA-MB-435, 35.5 µM. Besides, the TGI with MOLT-4 leukemia was 45 µM; with NCI-H460 lung, 48.4 µM; in the assay on SNB-75 CNS it was 38.2 µM; in the assay on T-47D breast it was more than 100 µM.
As to `CCOC(=O)CCCn1nnc(C(=O)OCC)c1C(=O)OCC`, the TGI in the assay with 786-0 renal, in the assay on COLO 205 colon, in the assay on HCT-116 colon, with HOP-62 NSCLC, with MDA-MB-231 breast and with MDA-MB-435 was more than 100 µM each time. The TGI with MOLT-4 leukemia, in the assay on NCI-H460 lung, with SNB-75 CNS and in the assay with T-47D breast was more than 100 µM in each case.
For `O=C1NC(N/N=C\C(O)C(O)C(O)CO)=N/C1=C/c1ccccc1` (stereo unspecified), the TGI in the assay on 786-0 renal, with COLO 205 colon, in the assay on HCT-116 colon, in the assay on HOP-62 NSCLC, in the assay with MDA-MB-231 breast and in the assay on MDA-MB-435 was more than 100 µM each time. Also, the TGI in the assay with MOLT-4 leukemia is > 100 µM and 54.3 µM; with NCI-H460 lung, more than 100 µM; in the assay on SNB-75 CNS it was more than 100 µM; in the assay on T-47D breast, more than 100 µM. The GI50 in the assay on HCT-116 colon was > 100 µM and 37.5 µM; in the assay with MDA-MB-435, > 100 µM and 49.6 µM; in the assay on NCI-H460 lung it was > 100 µM and 43.4 µM; in the assay with T-47D breast it was > 100 µM and 49.2 µM.
Regarding `O=C(Cn1c(=O)oc2ccc(C(=O)c3ccc(F)cc3)cc21)c1ccc([N+](=O)[O-])cc1`, the TGI is more than 100 µM in the assay with 786-0 renal; more than 100 µM in the assay on COLO 205 colon; more than 100 µM with HCT-116 colon; more than 100 µM with HOP-62 NSCLC; more than 100 µM in the assay on MDA-MB-231 breast; 72.9 µM with MDA-MB-435. The TGI with MOLT-4 leukemia, with NCI-H460 lung, in the assay with SNB-75 CNS and in the assay with T-47D breast was more than 100 µM each time.
Turning to `COC(=O)[C@H](Cc1ccccc1)NC(=O)c1ccc(CNC(=O)/C=C/c2ccc(-c3ccccc3)cc2)cc1`, the TGI in the assay with 786-0 renal was more than 100 µM; in the assay with COLO 205 colon, more than 100 µM; in the assay with HCT-116 colon, more than 100 µM; with HOP-62 NSCLC, 45.4 µM; in the assay with MDA-MB-231 breast, 76.7 µM; with MDA-MB-435 it was more than 100 µM. Further, the TGI in the assay on MOLT-4 leukemia is more than 100 µM; in the assay with NCI-H460 lung, more than 100 µM; in the assay with SNB-75 CNS it was 48.3 µM; in the assay with T-47D breast, more than 100 µM.
`COC(=O)c1cn(CCCC(=O)O)nn1`: the TGI in the assay with 786-0 renal, in the assay with COLO 205 colon, in the assay on HCT-116 colon, in the assay with HOP-62 NSCLC, in the assay on MDA-MB-231 breast and in the assay on MDA-MB-435 was more than 100 µM each time. Further, the TGI with MOLT-4 leukemia, in the assay on NCI-H460 lung, in the assay with SNB-75 CNS and in the assay with T-47D breast was more than 100 µM each time.
In the case of `OCC1OC(c2scc3c(=S)nc[nH]c23)C(O)C1O` (stereo unspecified), the TGI with 786-0 renal is more than 100 µM; with COLO 205 colon, 33.5 µM; in the assay on HCT-116 colon, more than 84.3 µM; with HOP-62 NSCLC, more than 100 µM; in the assay on MDA-MB-231 breast it was more than 69.2 µM; in the assay with MDA-MB-435, more than 100 µM. In addition, the TGI in the assay on MOLT-4 leukemia was 48.4 µM; in the assay with NCI-H460 lung it was more than 100 µM; with SNB-75 CNS, 30.5 µM; with T-47D breast, 9.53 µM.
Take `C=CCC1(O)c2ccccc2C(=O)c2c(O)ccc(O)c21` (stereo unspecified): the TGI in the assay with 786-0 renal is 31.8 µM; in the assay on COLO 205 colon, 26.9 µM; in the assay on HCT-116 colon it was 27.3 µM; in the assay with HOP-62 NSCLC, more than 86.8 µM; in the assay on MDA-MB-231 breast, 26 µM; in the assay with MDA-MB-435, 6.43 µM. The TGI in the assay with MOLT-4 leukemia was more than 58 µM; in the assay with NCI-H460 lung it was 18.3 µM; in the assay on SNB-75 CNS it was 25.3 µM; with T-47D breast, more than 59.2 µM.
For the molecule `O=C1c2c(F)c(F)c(F)c(F)c2SC2=NCCN12`, the TGI turned out to be 19.8 µM in the assay on 786-0 renal; 19 µM in the assay with COLO 205 colon; 5.24 µM in the assay with HCT-116 colon; 32.6 µM in the assay on HOP-62 NSCLC; 22.2 µM in the assay with MDA-MB-231 breast; 8.59 µM in the assay on MDA-MB-435. The TGI was 6.7 µM in the assay on MOLT-4 leukemia, 17.5 µM in the assay on NCI-H460 lung, 29.9 µM in the assay with SNB-75 CNS and 29 µM with T-47D breast.
For `CCCC(=O)O`, the TGI in the assay on 786-0 renal is more than 18700 µM; with COLO 205 colon, 9160 µM; with HCT-116 colon, more than 18700 µM; in the assay on HOP-62 NSCLC it was more than 18700 µM; with MDA-MB-231 breast it was 18000 µM; in the assay with MDA-MB-435 it was more than 18700 µM. For the same molecule, the TGI was more than 18700 µM in the assay with MOLT-4 leukemia, more than 18700 µM in the assay on NCI-H460 lung, more than 18700 µM in the assay with SNB-75 CNS and 9400 µM in the assay with T-47D breast. Also, the GI50 in the assay with COLO 205 colon was 2550 µM.
With `CCOC(=O)c1cccc(NC(=O)CCl)c1`, the TGI came out at 4.02 µM in the assay on 786-0 renal; 23.5 µM in the assay on COLO 205 colon; 8.29 µM with HCT-116 colon; 6.15 µM in the assay with HOP-62 NSCLC; 14.5 µM in the assay with MDA-MB-231 breast; 7.41 µM with MDA-MB-435. The TGI with MOLT-4 leukemia worked out at 27.2 µM; in the assay with NCI-H460 lung, 5.37 µM; with SNB-75 CNS it was 9.22 µM; in the assay on T-47D breast it was 10.1 µM.
As to `COc1c2cc([N+](=O)[O-])cc1CNC(=O)CN1CCOCCOCCN(CCOCCOCC1)CC(=O)NC2`, the TGI in the assay on 786-0 renal, in the assay with COLO 205 colon, with HCT-116 colon, with HOP-62 NSCLC, in the assay with MDA-MB-231 breast and in the assay with MDA-MB-435 was more than 100 µM throughout. In addition, the TGI in the assay on MOLT-4 leukemia, in the assay on NCI-H460 lung, with SNB-75 CNS and with T-47D breast was more than 100 µM each time.
As for `COc1cc2c(cc1OCCCN1CCN(CCCOc3cc4c(cc3OC)C(=O)N3CCC[C@H]3C=N4)CC1)C=CC(C)(C)O2`, the GI50 is 1.21 µM in the assay on COLO 205 colon; 1.25 µM in the assay with HOP-62 NSCLC; 1.31 µM in the assay with MDA-MB-231 breast; 1.24 µM with MDA-MB-435; 0.249 µM in the assay on MOLT-4 leukemia; 1.1 µM with NCI-H460 lung. Also, the GI50 in the assay on SNB-75 CNS is 1.26 µM; in the assay with T-47D breast, 0.792 µM. Moreover, the TGI turned out to be 2.61 µM in the assay with COLO 205 colon; 2.5 µM in the assay on HOP-62 NSCLC; 2.58 µM in the assay on MDA-MB-231 breast; 2.55 µM in the assay with MDA-MB-435; 0.765 µM with MOLT-4 leukemia; 2.32 µM in the assay with NCI-H460 lung. Further, the results for the TGI with SNB-75 CNS and with T-47D breast were 2.74 µM and 2.43 µM, respectively.
